Source: US20260248799A1, “COMBINATIONS OF RETINALDEHYDE DEHYDROGENASE 1 (RALDH1) INHIBITORS AND IMMUNOSTIMULATORS AND METHODS USING SAME” (The Trustees of the University of Pennsylvania, priority 2023, published 2026)

Key:
[1] = Pharmacokinetics IV and PO in CD-1 mice, plasma; assay type: in vivo; conditions: mouse plasma
Source text: The PK studies were done at NIH or a commercial CRO—Pharmacon using their in-house standard protocol. […] For C99, IV and PO, performed at NIH using CD-1 mice; formulation: 20% HPbCD in saline.

[2] = IP pharmacokinetics and tissue distribution of C-86 in C57BL/6J mice; assay type: in vivo, mouse; conditions: for AUC(0-inf) / Cmax: male, C57BL/6J, mouse, mice, IP
SNU398 cells = assay: In vitro proliferation and viability of human HCC cell lines; assay type: cell-based; conditions: SNU398, 1, 10, 100 and 1000 nM
Experimental: FIG. 20D: LC-MS for ATRA on Hepa1-6 (mouse HCC cell line) or SNU398 (human HCC cell line). […] Two independent experiments were performed with at least three replicates per experimental group. Unpaired t test, two-tailed. *, P<0.05; **, P<0.01; ***, P<0.001. […] Cell proliferation was measured by counting live cell numbers at each time point. […] Cell proliferation was measured by counting live cell numbers at each time point.
Cell viability was measured by flow cytometry (FCM) with 7-AAD staining (Y-axis indicates percentage of 7-AAD negative cells).
1×10^4~2×10^5 of Huh7, Huh1, Hepa 1-6, and Hep55 tumor cells were plated in triplicate in 48-well plates or 6-well plates. Viable cell numbers were counted every day for three to four days.

[3] = biological target: T1, Cholinesterase, Acetyl, ACES (Homo sapiens, UniProt P22303); assay: Safetyscreen: Acetyl cholinesterase; assay type: biochemical; conditions: read-out: % Inh. Cholinesterase, Acetyl, ACES
T1 construct: Eurofins Cerep Panlabs (contract panel)

Phosphodiesterase PDE4 = assay: Safetyscreen: PDE4; assay type: biochemical, human; conditions: 10 μM
[4] = biological target: T2, Protein Tyrosine Kinase, Insulin Receptor (Homo sapiens, UniProt P06213); assay: Safetyscreen: Insulin Receptor kinase; assay type: biochemical; conditions: read-out: % Inh. Protein Tyrosine Kinase, Insulin Receptor
T2 construct: Eurofins Cerep Panlabs (contract panel)

Adrenergic α2A = biological target: T3, Adrenergic α2A (Homo sapiens, UniProt P08913); assay: Safetyscreen: Adrenergic α2A; assay type: binding; conditions: read-out: % Inh. Adrenergic α2A
T3 construct: Eurofins Cerep Panlabs (contract panel)

Adrenergic β2 = biological target: T4, Adrenergic β2 (Homo sapiens, UniProt P07550); assay: Safetyscreen: Adrenergic β2; assay type: binding; conditions: read-out: % Inh. Adrenergic β2
T4 construct: Eurofins Cerep Panlabs (contract panel)

Angiotensin AT1 = biological target: T5, Angiotensin AT1 (Homo sapiens, UniProt P30556); assay: Safetyscreen: Angiotensin AT1; assay type: binding; conditions: read-out: % Inh. Angiotensin AT1
T5 construct: purchased Eurofins Cereps Panlabs

Cannabinoid CB2 = biological target: T6, Cannabinoid CB2 (Homo sapiens, UniProt P34972); assay: Safetyscreen: CB2; assay type: binding; conditions: read-out: % Inh. Cannabinoid CB2
T6 construct: purchased Eurofins Cereps Panlabs

GABABIA = biological target: T7, GABABIA (Homo sapiens, UniProt Q9UBS5); assay: Safetyscreen: GABABIA; assay type: binding; conditions: read-out: % Inh. GABABIA
T7 construct: purchased Eurofins Cereps Panlabs

Glutamate, Kainate = assay: Safetyscreen: Glutamate, Kainate; assay type: binding, rat; conditions: 10 μM
[5] = system: Glutamate, NMDA, Phencyclidine; assay: Safetyscreen: NMDA, Phencyclidine; assay type: binding, rat; conditions: 10 μM
Histamine H2 = biological target: T8, Histamine H2 (Homo sapiens, UniProt P25021); assay: Safetyscreen: Histamine H2; assay type: binding; conditions: read-out: % Inh. Histamine H2
T8 construct: purchased Eurofins Cereps Panlabs

Muscarinic M3 = biological target: T9, Muscarinic M3 (Homo sapiens, UniProt P20309); assay: Safetyscreen: Muscarinic M3; assay type: binding; conditions: read-out: % Inh. Muscarinic M3
T9 construct: Eurofins Cereps Panlabs (contract panel)

Neuropeptide Y Y1 = biological target: T10, Neuropeptide Y Y1 (Homo sapiens, UniProt P25929); assay: Safetyscreen: Neuropeptide Y Y1; assay type: binding; conditions: read-out: % Inh. Neuropeptide Y Y1
T10 construct: Eurofins Cereps Panlabs (contract panel)

[6] = biological target: T11, Nicotinic Acetylcholine α1, Bungarotoxin (Homo sapiens, UniProt P02708+P07510+Q07001); assay: Safetyscreen: Nicotinic Acetylcholine α1; assay type: binding; conditions: read-out: % Inh. Nicotinic Acetylcholine α1, Bungarotoxin
T11 construct: Eurofins Cereps Panlabs (contract panel)

PPARγ = biological target: T12, PPARγ (Homo sapiens, UniProt P37231); assay: Safetyscreen: PPARγ; assay type: binding
T12 construct: Eurofins Cereps Panlabs (contract panel)

[7] = biological target: T13, Serotonin (5-Hydroxytryptamine) 5-HT2A (Homo sapiens, UniProt P28223); assay: Safetyscreen: 5-HT2A; assay type: binding; conditions: read-out: % Inh. Serotonin (5-Hydroxytryptamine) 5-HT2A
T13 construct: Eurofins Cereps Panlabs (contract panel)

[8] = biological target: T14, Serotonin (5-Hydroxytryptamine) 5-HT3 (Homo sapiens, UniProt P46098); assay: Safetyscreen: 5-HT3; assay type: binding; conditions: read-out: % Inh. Serotonin (5-Hydroxytryptamine) 5-HT3
T14 construct: Eurofins Cereps Panlabs (contract panel)

Sodium Channel, Site 2 = assay: Safetyscreen: Sodium Channel, Site 2; assay type: binding, rat; conditions: 10 μM
Tachykinin NK1 = biological target: T15, Tachykinin NK1 (Homo sapiens, UniProt P25103); assay: Safetyscreen: Tachykinin NK1; assay type: binding; conditions: read-out: % Inh. Tachykinin NK1
T15 construct: Eurofins Cereps Panlabs (contract panel)

Transporter, Adenosine = assay: Safetyscreen: Adenosine transporter; assay type: binding, guinea pig; conditions: 10 μM
[9] = intravenous administration, 2 mg/kg

T3 sequence (P08913 whole entry): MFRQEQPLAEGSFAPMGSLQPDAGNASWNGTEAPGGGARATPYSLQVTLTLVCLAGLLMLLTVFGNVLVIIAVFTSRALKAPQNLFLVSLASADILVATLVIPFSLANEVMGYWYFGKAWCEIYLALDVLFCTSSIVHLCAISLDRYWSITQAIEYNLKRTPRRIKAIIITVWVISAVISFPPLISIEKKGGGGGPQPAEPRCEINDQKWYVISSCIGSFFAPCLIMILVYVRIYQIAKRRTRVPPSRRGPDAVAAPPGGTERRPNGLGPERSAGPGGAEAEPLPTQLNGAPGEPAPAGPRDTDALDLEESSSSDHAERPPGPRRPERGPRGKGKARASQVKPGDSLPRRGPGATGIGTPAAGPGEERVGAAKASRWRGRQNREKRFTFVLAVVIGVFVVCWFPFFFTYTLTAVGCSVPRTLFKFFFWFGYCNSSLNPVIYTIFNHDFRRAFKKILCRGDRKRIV
T8 sequence (P25021 whole entry): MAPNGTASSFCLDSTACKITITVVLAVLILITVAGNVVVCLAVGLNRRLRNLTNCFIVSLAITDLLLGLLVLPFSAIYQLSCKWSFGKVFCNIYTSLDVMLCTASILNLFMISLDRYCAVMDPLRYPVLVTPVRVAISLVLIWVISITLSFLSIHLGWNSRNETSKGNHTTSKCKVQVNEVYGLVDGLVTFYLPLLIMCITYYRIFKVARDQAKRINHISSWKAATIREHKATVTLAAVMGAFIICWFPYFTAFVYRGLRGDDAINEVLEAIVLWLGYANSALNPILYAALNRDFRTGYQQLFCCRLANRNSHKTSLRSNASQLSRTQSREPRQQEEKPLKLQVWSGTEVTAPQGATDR
T6 sequence (P34972 whole entry): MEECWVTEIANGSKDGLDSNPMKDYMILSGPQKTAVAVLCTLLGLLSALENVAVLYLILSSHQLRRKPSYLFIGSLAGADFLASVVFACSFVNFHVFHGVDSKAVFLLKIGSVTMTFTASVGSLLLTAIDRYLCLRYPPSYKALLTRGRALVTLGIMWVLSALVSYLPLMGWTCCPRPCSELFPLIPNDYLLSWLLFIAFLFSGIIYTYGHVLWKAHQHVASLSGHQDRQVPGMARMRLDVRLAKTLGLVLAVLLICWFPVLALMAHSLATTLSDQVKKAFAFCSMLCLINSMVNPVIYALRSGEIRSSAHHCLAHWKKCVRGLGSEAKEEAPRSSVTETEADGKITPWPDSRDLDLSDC
T12 sequence (P37231 whole entry): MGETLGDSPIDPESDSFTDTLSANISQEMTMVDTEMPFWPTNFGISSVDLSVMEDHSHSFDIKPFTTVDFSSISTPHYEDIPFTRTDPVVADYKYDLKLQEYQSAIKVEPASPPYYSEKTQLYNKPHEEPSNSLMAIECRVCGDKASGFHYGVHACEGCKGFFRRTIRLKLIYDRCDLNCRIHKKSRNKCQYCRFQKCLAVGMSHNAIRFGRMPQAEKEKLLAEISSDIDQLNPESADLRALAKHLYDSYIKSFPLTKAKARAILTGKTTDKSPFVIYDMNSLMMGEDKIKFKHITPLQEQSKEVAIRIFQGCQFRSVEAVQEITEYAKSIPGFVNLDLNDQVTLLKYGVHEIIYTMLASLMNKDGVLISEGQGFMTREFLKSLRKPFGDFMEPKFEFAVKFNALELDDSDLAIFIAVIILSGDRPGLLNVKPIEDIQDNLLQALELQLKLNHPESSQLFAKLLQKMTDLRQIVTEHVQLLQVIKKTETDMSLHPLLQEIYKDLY
T4 sequence (P07550 whole entry): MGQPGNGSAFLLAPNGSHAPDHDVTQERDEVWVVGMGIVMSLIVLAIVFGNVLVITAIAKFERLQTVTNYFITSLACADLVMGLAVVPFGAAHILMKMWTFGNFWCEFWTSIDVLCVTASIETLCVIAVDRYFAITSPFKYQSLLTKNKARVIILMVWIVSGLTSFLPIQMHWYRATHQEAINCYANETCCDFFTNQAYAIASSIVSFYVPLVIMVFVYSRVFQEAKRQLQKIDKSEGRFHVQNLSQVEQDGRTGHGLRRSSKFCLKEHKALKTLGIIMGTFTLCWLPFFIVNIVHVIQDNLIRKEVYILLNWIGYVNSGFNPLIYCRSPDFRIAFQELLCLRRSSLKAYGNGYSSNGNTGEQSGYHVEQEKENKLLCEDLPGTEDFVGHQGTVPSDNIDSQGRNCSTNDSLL
T10 sequence (P25929 whole entry): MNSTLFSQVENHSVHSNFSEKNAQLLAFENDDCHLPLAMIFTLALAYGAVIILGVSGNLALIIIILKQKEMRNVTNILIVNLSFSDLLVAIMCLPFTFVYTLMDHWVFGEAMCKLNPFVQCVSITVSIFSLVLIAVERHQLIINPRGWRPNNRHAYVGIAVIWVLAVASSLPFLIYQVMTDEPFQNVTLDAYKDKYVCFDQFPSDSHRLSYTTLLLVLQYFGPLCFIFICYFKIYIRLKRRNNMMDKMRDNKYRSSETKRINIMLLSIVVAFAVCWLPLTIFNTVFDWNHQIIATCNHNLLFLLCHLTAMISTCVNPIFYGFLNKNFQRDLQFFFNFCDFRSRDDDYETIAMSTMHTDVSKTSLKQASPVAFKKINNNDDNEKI
T2 sequence (P06213 28-1382): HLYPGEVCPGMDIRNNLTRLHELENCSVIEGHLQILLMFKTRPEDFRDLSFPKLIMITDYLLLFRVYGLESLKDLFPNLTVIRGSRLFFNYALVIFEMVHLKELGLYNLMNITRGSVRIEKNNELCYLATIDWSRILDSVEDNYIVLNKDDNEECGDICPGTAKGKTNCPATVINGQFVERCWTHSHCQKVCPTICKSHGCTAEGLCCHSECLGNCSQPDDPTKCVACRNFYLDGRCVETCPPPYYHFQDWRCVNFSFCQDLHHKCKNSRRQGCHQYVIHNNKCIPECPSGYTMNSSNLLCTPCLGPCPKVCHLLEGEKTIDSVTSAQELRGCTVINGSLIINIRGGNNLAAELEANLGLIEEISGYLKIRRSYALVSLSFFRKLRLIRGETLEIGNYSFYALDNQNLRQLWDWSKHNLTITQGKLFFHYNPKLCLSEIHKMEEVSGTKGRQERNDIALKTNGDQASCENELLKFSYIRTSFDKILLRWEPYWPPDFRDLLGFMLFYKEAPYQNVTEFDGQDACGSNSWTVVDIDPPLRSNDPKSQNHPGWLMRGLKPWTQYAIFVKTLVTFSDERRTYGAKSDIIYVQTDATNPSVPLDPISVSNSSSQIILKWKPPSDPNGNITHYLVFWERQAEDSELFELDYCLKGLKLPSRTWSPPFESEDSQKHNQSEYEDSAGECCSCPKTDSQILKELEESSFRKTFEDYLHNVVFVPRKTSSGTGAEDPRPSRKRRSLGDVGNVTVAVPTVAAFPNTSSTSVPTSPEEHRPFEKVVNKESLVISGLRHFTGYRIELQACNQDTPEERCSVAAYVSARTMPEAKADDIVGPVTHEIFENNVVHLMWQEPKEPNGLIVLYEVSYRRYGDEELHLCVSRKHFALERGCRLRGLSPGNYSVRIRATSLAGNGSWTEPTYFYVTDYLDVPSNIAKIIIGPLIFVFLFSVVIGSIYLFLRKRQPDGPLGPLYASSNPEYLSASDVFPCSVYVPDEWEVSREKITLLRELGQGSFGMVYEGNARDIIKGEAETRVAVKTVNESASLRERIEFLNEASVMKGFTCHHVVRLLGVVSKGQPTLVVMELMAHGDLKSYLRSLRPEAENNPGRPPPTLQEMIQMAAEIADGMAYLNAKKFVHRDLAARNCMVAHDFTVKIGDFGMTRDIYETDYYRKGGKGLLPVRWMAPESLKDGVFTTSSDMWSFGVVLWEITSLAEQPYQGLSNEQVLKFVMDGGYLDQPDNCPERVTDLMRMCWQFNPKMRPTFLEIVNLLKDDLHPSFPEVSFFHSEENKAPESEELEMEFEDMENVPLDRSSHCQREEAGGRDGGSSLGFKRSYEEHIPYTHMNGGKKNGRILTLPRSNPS
T5 sequence (P30556 whole entry): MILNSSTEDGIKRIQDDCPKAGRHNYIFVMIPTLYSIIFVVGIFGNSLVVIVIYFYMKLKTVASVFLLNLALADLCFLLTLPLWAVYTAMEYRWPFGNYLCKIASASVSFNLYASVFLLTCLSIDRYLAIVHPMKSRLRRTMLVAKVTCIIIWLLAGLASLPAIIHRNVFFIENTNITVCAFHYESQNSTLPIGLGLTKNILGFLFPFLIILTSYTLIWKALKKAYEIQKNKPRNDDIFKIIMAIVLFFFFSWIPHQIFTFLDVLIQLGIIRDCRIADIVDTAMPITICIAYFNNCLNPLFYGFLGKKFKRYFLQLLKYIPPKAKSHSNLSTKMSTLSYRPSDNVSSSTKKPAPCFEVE
T15 sequence (P25103 whole entry): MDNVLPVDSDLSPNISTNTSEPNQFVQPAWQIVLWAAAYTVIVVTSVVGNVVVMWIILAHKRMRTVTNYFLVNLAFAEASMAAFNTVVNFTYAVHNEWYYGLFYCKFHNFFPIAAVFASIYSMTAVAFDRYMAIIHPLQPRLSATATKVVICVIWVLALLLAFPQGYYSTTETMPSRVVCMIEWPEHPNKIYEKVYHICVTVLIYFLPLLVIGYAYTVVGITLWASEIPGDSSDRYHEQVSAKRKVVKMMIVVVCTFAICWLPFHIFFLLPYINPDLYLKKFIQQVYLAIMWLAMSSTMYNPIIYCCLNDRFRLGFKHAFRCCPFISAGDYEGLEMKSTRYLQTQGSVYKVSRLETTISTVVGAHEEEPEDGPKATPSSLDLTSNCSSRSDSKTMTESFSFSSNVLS

CS(=O)(=O)N1CCN(C(=O)c2cnc3ccc(F)cc3c2N2CCC(C#N)(c3ccccc3)CC2)CC1 [Compound C-86, 1-(6-fluoro-3-(4-(methylsulfonyl)piperazine-1-carbonyl)quinolin-4-yl)-4-phenylpiperidine-4-carbonitrile]
AUC0-∞ [1, 9]: 1141 ng·h/mL
Cmax [1, 9]: 2350 ng/mL
Vss [1, 9]: 0.7 L/kg
AUC0-∞ ([1]; oral administration, 10 mg/kg): 2518 ng·h/mL
Cmax ([1]; oral administration, 10 mg/kg): 1234 ng/mL
F ([1]; oral administration, 10 mg/kg): 44%
bio-distribution in various tissues ([2]; delivered i.p.): good bio-distribution
AUC(0-inf) ([2]; 10 mg/kg, adipose (mesenteric)): 121000 ng·h/mL
Cmax ([2]; 10 mg/kg, adipose (mesenteric)): 45200 ng/mL
AUC(0-inf) ([2]; 10 mg/kg, brain): 753 ng·h/mL
Cmax ([2]; 10 mg/kg, brain): 362 ng/mL
AUC(0-inf) ([2]; 10 mg/kg, liver): 32900 ng·h/mL
Cmax ([2]; 10 mg/kg, liver): 27600 ng/mL
AUC(0-inf) ([2]; 10 mg/kg, pancreas): 35000 ng·h/mL
Cmax ([2]; 10 mg/kg, pancreas): 34400 ng/mL
AUC(0-inf) ([2]; 10 mg/kg, plasma): 3720 ng·h/mL
Cmax ([2]; 10 mg/kg, plasma): 2930 ng/mL
AUC(0-inf) ([2]; 30 mg/kg, adipose (mesenteric)): 832000 ng·h/mL
Cmax ([2]; 30 mg/kg, adipose (mesenteric)): 140000 ng/mL
AUC(0-inf) ([2]; 30 mg/kg, brain): 4520 ng·h/mL
Cmax ([2]; 30 mg/kg, brain): 1150 ng/mL
AUC(0-inf) ([2]; 30 mg/kg, liver): 174000 ng·h/mL
Cmax ([2]; 30 mg/kg, liver): 70500 ng/mL
AUC(0-inf) ([2]; 30 mg/kg, pancreas): 276000 ng·h/mL
Cmax ([2]; 30 mg/kg, pancreas): 149000 ng/mL
AUC(0-inf) ([2]; 30 mg/kg, plasma): 28000 ng·h/mL
Cmax ([2]; 30 mg/kg, plasma): 11600 ng/mL
HCC cell growth in vitro (SNU398 cells): did not inhibit HCC cell growth in vitro
inhibition at 10 µM [3]: 3%
% Inh. Phosphodiesterase PDE4 (Phosphodiesterase PDE4): −7%
inhibition at 10 µM [4]: 0%
inhibition at 10 µM (Adrenergic α2A): 0%
inhibition at 10 µM (Adrenergic β2): 11%
inhibition at 10 µM (Angiotensin AT1): 19%
inhibition at 10 µM (Cannabinoid CB2): 21%
inhibition at 10 µM (GABABIA): 7%
% Inh. Glutamate, Kainate (Glutamate, Kainate): 11%
% Inh. Glutamate, NMDA, Phencyclidine [5]: 5%
inhibition at 10 µM (Histamine H2): -3%
inhibition at 10 µM (Muscarinic M3): 5%
inhibition at 10 µM (Neuropeptide Y Y1): 11%
inhibition at 10 µM [6]: 2%
inhibition at 10 µM (PPARγ): 12%
inhibition at 10 µM [7]: 36%
inhibition at 10 µM [8]: 2%
% Inh. Sodium Channel, Site 2 (Sodium Channel, Site 2): 21%
inhibition at 10 µM (Tachykinin NK1): 37%
% Inh. Transporter, Adenosine (Transporter, Adenosine): 56%
